The compounds below were run on ducksalad (assay: Test C flooded paddy test). Conditions: 62 g ai/ha, scale 0 to 100.
Type: in vivo, Heteranthera limosa

Compound | Ducksalad plant response rating
CCC1=NN(C(C)(C)C)CC1C(=O)Nc1cc(C(=O)N2CC=CC2)ccc1F (racemic) [Compound 340] | 50

Same assay, conditions: 125 g ai/ha, scale 0 to 100 (0 no effect, 100 complete control)

Compound | Ducksalad plant response rating
CCC1=NN(C(C)(C)C)CC1C(=O)Nc1cc(C(=O)N2CC=CC2)ccc1F (racemic) [Compound 340] | 70

Same assay, conditions: 250 g ai/ha, scale of 0 to 100, 0 is no effect, 100 is complete control

Compound | Ducksalad plant response rating
CCC1=NN(C(C)(C)C)CC1C(=O)Nc1cc(C(=O)N2CC=CC2)ccc1F (racemic) [Compound 340] | 70

Same assay, conditions: 500 g ai/ha, visual rating after 12 to 14 days, scale 0 to 100 (0 no effect, 100 complete control)

Compound | Plant response rating, Ducksalad
CCC1=NN(C(C)(C)C)CC1C(=O)Nc1cc(C(=O)N2CC=CC2)ccc1F (racemic) [Compound 340] | 90

These compounds were tested on common ragweed (assay: Test C pre-/postemergence herbicide test). Conditions: 62 g ai/ha; preemergence; scale 0 to 100.
Type: in vivo, Ambrosia elatior
Set-up: key to Plant response rating, Ragweed: 0 = no effect, 100 = complete control
Method in brief: (§1)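 Pre- and postemergence application, solvent/surfactant formulation; post at 1- to 4-leaf stage (2–18 cm). Greenhouse 12–14 d. Visual rating vs controls, 0 = no effect, 100 = complete control.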

Compound | Plant response rating, Ragweed
CCC1=NN(C(C)(C)C)CC1C(=O)Nc1cc(C(=O)N2CC=CC2)ccc1F (racemic) [Compound 340] | 0

Same assay, conditions: 125 g ai/ha; preemergence

Compound | Plant response rating (0 = no effect, 100 = complete control), Ragweed
CCC1=NN(C(C)(C)C)CC1C(=O)Nc1cc(C(=O)N2CC=CC2)ccc1F (racemic) [Compound 340] | 0

Same assay, conditions: 250 g ai/ha; scale 0-100; preemergence

Compound | Plant response rating, Ragweed
CCC1=NN(C(C)(C)C)CC1C(=O)Nc1cc(C(=O)N2CC=CC2)ccc1F (racemic) [Compound 340] | 20

Same assay, conditions: 500 g ai/ha; scale 0 to 100 (0 no effect, 100 complete control); visual, 12 to 14 days; preemergence

Compound | Plant response rating, Ragweed
CCC1=NN(C(C)(C)C)CC1C(=O)Nc1cc(C(=O)N2CC=CC2)ccc1F (racemic) [Compound 340] | 75

What follows are compounds tested on pigweed (assay: Test C pre-/postemergence herbicide test). Conditions: 62 g ai/ha; preemergence; scale 0 to 100.
Type: in vivo, Amaranthus retroflexus
Method in brief: as §1

Compound | Plant response rating, Pigweed
CCC1=NN(C(C)(C)C)CC1C(=O)Nc1cc(C(=O)N2CC=CC2)ccc1F (racemic) [Compound 340] | 70

Same assay, conditions: 125 g ai/ha; preemergence

Compound | Plant response rating (0 = no effect, 100 = complete control), Pigweed
CCC1=NN(C(C)(C)C)CC1C(=O)Nc1cc(C(=O)N2CC=CC2)ccc1F (racemic) [Compound 340] | 85

Same assay, conditions: 250 g ai/ha; scale 0-100; preemergence

Compound | Plant response rating, Pigweed
CCC1=NN(C(C)(C)C)CC1C(=O)Nc1cc(C(=O)N2CC=CC2)ccc1F (racemic) [Compound 340] | 100

Same assay, conditions: 500 g ai/ha; scale 0 to 100 (0 no effect, 100 complete control); visual, 12 to 14 days; preemergence

Compound | Plant response rating, Pigweed
CCC1=NN(C(C)(C)C)CC1C(=O)Nc1cc(C(=O)N2CC=CC2)ccc1F (racemic) [Compound 340] | 100

What follows are compounds tested on yellow nutsedge (assay: Test C pre-/postemergence herbicide test). Conditions: 62 g ai/ha; preemergence; scale 0 to 100.
Type: in vivo, Cyperus esculentus
Method in brief: as §1

Compound | Plant response rating, Nutsedge, Yellow
CCC1=NN(C(C)(C)C)CC1C(=O)Nc1cc(C(=O)N2CC=CC2)ccc1F (racemic) [Compound 340] | 0

Same assay, conditions: 125 g ai/ha; preemergence

Compound | Plant response rating (0 = no effect, 100 = complete control), Nutsedge, Yellow
CCC1=NN(C(C)(C)C)CC1C(=O)Nc1cc(C(=O)N2CC=CC2)ccc1F (racemic) [Compound 340] | 0

Same assay, conditions: 250 g ai/ha; scale 0-100; preemergence

Compound | Plant response rating, Nutsedge, Yellow
CCC1=NN(C(C)(C)C)CC1C(=O)Nc1cc(C(=O)N2CC=CC2)ccc1F (racemic) [Compound 340] | 0

Same assay, conditions: 500 g ai/ha; scale 0 to 100 (0 no effect, 100 complete control); visual, 12 to 14 days; preemergence

Compound | Plant response rating, Nutsedge, Yellow
CCC1=NN(C(C)(C)C)CC1C(=O)Nc1cc(C(=O)N2CC=CC2)ccc1F (racemic) [Compound 340] | 60

These compounds were tested on goosegrass (assay: Test C pre-/postemergence herbicide test). Conditions: 62 g ai/ha; preemergence; scale 0 to 100.
Type: in vivo, Eleusine indica
Method in brief: as §1

Compound | Plant response rating, Goosegrass
CCC1=NN(C(C)(C)C)CC1C(=O)Nc1cc(C(=O)N2CC=CC2)ccc1F (racemic) [Compound 340] | 5

Same assay, conditions: 125 g ai/ha; preemergence

Compound | Plant response rating (0 = no effect, 100 = complete control), Goosegrass
CCC1=NN(C(C)(C)C)CC1C(=O)Nc1cc(C(=O)N2CC=CC2)ccc1F (racemic) [Compound 340] | 60

Same assay, conditions: 250 g ai/ha; scale 0-100; preemergence

Compound | Plant response rating, Goosegrass
CCC1=NN(C(C)(C)C)CC1C(=O)Nc1cc(C(=O)N2CC=CC2)ccc1F (racemic) [Compound 340] | 85

Same assay, conditions: 500 g ai/ha; scale 0 to 100 (0 no effect, 100 complete control); visual, 12 to 14 days; preemergence

Compound | Plant response rating, Goosegrass
CCC1=NN(C(C)(C)C)CC1C(=O)Nc1cc(C(=O)N2CC=CC2)ccc1F (racemic) [Compound 340] | 90

What follows are compounds tested on large crabgrass (assay: Test C pre-/postemergence herbicide test). Conditions: 62 g ai/ha; preemergence; scale 0 to 100.
Type: in vivo, Digitaria sanguinalis
Method in brief: as §1

Compound | Plant response rating, Crabgrass, Large
CCC1=NN(C(C)(C)C)CC1C(=O)Nc1cc(C(=O)N2CC=CC2)ccc1F (racemic) [Compound 340] | 50

Same assay, conditions: 125 g ai/ha; preemergence

Compound | Plant response rating (0 = no effect, 100 = complete control), Crabgrass, Large
CCC1=NN(C(C)(C)C)CC1C(=O)Nc1cc(C(=O)N2CC=CC2)ccc1F (racemic) [Compound 340] | 70

Same assay, conditions: 250 g ai/ha; scale 0-100; preemergence

Compound | Plant response rating, Crabgrass, Large
CCC1=NN(C(C)(C)C)CC1C(=O)Nc1cc(C(=O)N2CC=CC2)ccc1F (racemic) [Compound 340] | 100

Same assay, conditions: 500 g ai/ha; scale 0 to 100 (0 no effect, 100 complete control); visual, 12 to 14 days; preemergence

Compound | Plant response rating, Crabgrass, Large
CCC1=NN(C(C)(C)C)CC1C(=O)Nc1cc(C(=O)N2CC=CC2)ccc1F (racemic) [Compound 340] | 100

Each compound was assayed on barnyardgrass (assay: Test C flooded paddy test). Conditions: 62 g ai/ha, scale 0 to 100 (0 no effect, 100 complete control).
Type: in vivo, Echinochloa crus-galli
Method in brief: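 After a postemergence application at 1 to 4 leaves (plants 2–18 cm high), or at 2 leaves for barnyardgrass in flooded paddy, plants stayed in the greenhouse for 12 to 14 days. Damage was then judged visually relative to control plants, with 100 indicating complete control.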

Compound | Barnyardgrass plant response rating
CCC1=NN(C(C)(C)C)CC1C(=O)Nc1cc(C(=O)N2CC=CC2)ccc1F (racemic) [Compound 340] | 20

Same assay, conditions: 125 g ai/ha, scale 0 to 100 (0 no effect, 100 complete control)

Compound | Barnyardgrass plant response rating
CCC1=NN(C(C)(C)C)CC1C(=O)Nc1cc(C(=O)N2CC=CC2)ccc1F (racemic) [Compound 340] | 50

Same assay, conditions: 250 g ai/ha, scale of 0 to 100, 0 is no effect, 100 is complete control

Compound | Barnyardgrass plant response rating
CCC1=NN(C(C)(C)C)CC1C(=O)Nc1cc(C(=O)N2CC=CC2)ccc1F (racemic) [Compound 340] | 60

Same assay, conditions: 500 g ai/ha, visual rating after 12 to 14 days, scale 0 to 100 (0 no effect, 100 complete control)

Compound | Plant response rating, Barnyardgrass
CCC1=NN(C(C)(C)C)CC1C(=O)Nc1cc(C(=O)N2CC=CC2)ccc1F (racemic) [Compound 340] | 70

Each compound was assayed on giant foxtail (assay: Test C pre-/postemergence herbicide test). Conditions: 62 g ai/ha; preemergence; scale 0 to 100.
Type: in vivo, Setaria faberi
Method in brief: as §1

Compound | Plant response rating, Foxtail, Giant
CCC1=NN(C(C)(C)C)CC1C(=O)Nc1cc(C(=O)N2CC=CC2)ccc1F (racemic) [Compound 340] | 0

Same assay, conditions: 125 g ai/ha; preemergence

Compound | Plant response rating (0 = no effect, 100 = complete control), Foxtail, Giant
CCC1=NN(C(C)(C)C)CC1C(=O)Nc1cc(C(=O)N2CC=CC2)ccc1F (racemic) [Compound 340] | 10

Same assay, conditions: 250 g ai/ha; scale 0-100; preemergence

Compound | Plant response rating, Foxtail, Giant
CCC1=NN(C(C)(C)C)CC1C(=O)Nc1cc(C(=O)N2CC=CC2)ccc1F (racemic) [Compound 340] | 60

Same assay, conditions: 500 g ai/ha; scale 0 to 100 (0 no effect, 100 complete control); visual, 12 to 14 days; preemergence

Compound | Plant response rating, Foxtail, Giant
CCC1=NN(C(C)(C)C)CC1C(=O)Nc1cc(C(=O)N2CC=CC2)ccc1F (racemic) [Compound 340] | 85

The compounds below were run on soybean (assay: Test C pre-/postemergence herbicide test). Conditions: 62 g ai/ha; preemergence; scale 0 to 100.
Type: in vivo, Glycine max
Method in brief: as §1

Compound | Plant response rating, Soybean
CCC1=NN(C(C)(C)C)CC1C(=O)Nc1cc(C(=O)N2CC=CC2)ccc1F (racemic) [Compound 340] | 0

Same assay, conditions: 125 g ai/ha; preemergence

Compound | Plant response rating (0 = no effect, 100 = complete control), Soybean
CCC1=NN(C(C)(C)C)CC1C(=O)Nc1cc(C(=O)N2CC=CC2)ccc1F (racemic) [Compound 340] | 0

Same assay, conditions: 250 g ai/ha; scale 0-100; preemergence

Compound | Plant response rating, Soybean
CCC1=NN(C(C)(C)C)CC1C(=O)Nc1cc(C(=O)N2CC=CC2)ccc1F (racemic) [Compound 340] | 0

Same assay, conditions: 500 g ai/ha; scale 0 to 100 (0 no effect, 100 complete control); visual, 12 to 14 days; preemergence

Compound | Plant response rating, Soybean
CCC1=NN(C(C)(C)C)CC1C(=O)Nc1cc(C(=O)N2CC=CC2)ccc1F (racemic) [Compound 340] | 10

The compounds below were run on velvetleaf (assay: Test C pre-/postemergence herbicide test). Conditions: 62 g ai/ha; preemergence; scale 0 to 100.
Type: in vivo, Abutilon theophrasti
Method in brief: as §1

Compound | Plant response rating, Velvetleaf
CCC1=NN(C(C)(C)C)CC1C(=O)Nc1cc(C(=O)N2CC=CC2)ccc1F (racemic) [Compound 340] | 0

Same assay, conditions: 125 g ai/ha; preemergence

Compound | Plant response rating (0 = no effect, 100 = complete control), Velvetleaf
CCC1=NN(C(C)(C)C)CC1C(=O)Nc1cc(C(=O)N2CC=CC2)ccc1F (racemic) [Compound 340] | 60

Same assay, conditions: 250 g ai/ha; scale 0-100; preemergence

Compound | Plant response rating, Velvetleaf
CCC1=NN(C(C)(C)C)CC1C(=O)Nc1cc(C(=O)N2CC=CC2)ccc1F (racemic) [Compound 340] | 95

Same assay, conditions: 500 g ai/ha; scale 0 to 100 (0 no effect, 100 complete control); visual, 12 to 14 days; preemergence

Compound | Plant response rating, Velvetleaf
CCC1=NN(C(C)(C)C)CC1C(=O)Nc1cc(C(=O)N2CC=CC2)ccc1F (racemic) [Compound 340] | 100
